# Results: patent US20200078404A1, “COMBINATION OF A CELL THERAPY AND AN IMMUNOMODULATORY COMPOUND” (Juno Therapeutics, Inc., priority 2017, published 2020)
# Key:
# [1] = test system: OPM2-ffluc tumor; assay: OPM-2 human multiple myeloma orthotopic xenograft mouse model, Study 1; type: in vivo
# Experimental: Mice (NOD.Cg-Prkdc^scidIL-2rg^tm1Wjl/SzJ mice (NSG; Jackson Labs)) were injected intravenously (i.v.) with 2×10^6 OPM2 (multiple myeloma) cells transfected with firefly luciferase (OPM2-ffluc). Tumor engraftment was allowed to occur for 13 days prior to staging (14 days before CAR-T cell administration) and verified using bioluminescence imaging.
# Table E1 summarizes the dosing regimens.
# Tumor burden in animals among the various groups was monitored by bioluminescence imaging up to day 39 post-CAR+ T cell dosing. For bioluminescence imaging, mice received intraperitoneal (i.p.) injections of luciferin substrate (CaliperLife Sciences, Hopkinton, Mass.) resuspended in PBS (15 μg/g body weight). The total flux (photon/s) was determined at each time point.
# Table E2 lists median survival (ms) (as assessed at day 56 post-CAR+ T cell administration) and number of mice in group surviving until day 56-post-CAR+ T cell administration, for each animal group assessed in this study.
# [2] = test system: anti-CD19 CAR-expressing T cells; assay: Serial stimulation with K562.CD19: expansion (cell doublings); type: cell-based, human; conditions: for cell doublings: 1000 nM lenalidomide
# Source text: Every 3-4 days (start of each new round), the cells were counted.
# [3] = test system: K562-CD19 cells; assay: Cytolytic activity of restimulated anti-CD19 CAR+ T cells against K562-CD19 cells; type: cell-based, human; conditions: 1 μM lenalidomide, 2nd and 4th restimulation
# Experimental: Cells from each condition were plated in triplicate. Representative cell killing observed at the 2nd and 4th restimulation for both donors is shown in FIG. 18A (as normalized to K562-CD19-Nuc-labeled cells at t=0) or in FIG. 18B (% cell killing compared to vehicle only control (set at 100%)).
# [4] = test system: RPMI-8226 target cells; assay: Serial restimulation on BCMA-conjugated beads, cytolytic activity against RPMI-8226 at each reset; type: cell-based, human; conditions: preincubated with 5 μM lenalidomide for 7 days or 14 days
# Experimental: Anti-BCMA CAR T cell compositions were generated from three different donors, each containing T cells expressing the same anti-BCMA CAR, thawed, and were incubated for seven days with beads (diameter about 4.5 μm) at a 1:1 ratio of beads to cells from a 50 μg/mL BCMA-conjugated bead composition generated as described in Example 9.
# Cells from each condition were plated in triplicate. The % cell killing compared to vehicle only control (set at 100%) was determined.
# [5] = test system: OPM-2; conditions: read-out: sensitive to lenalidomide; cited from earlier work
# [6] = test system: RPMI-8226 target cells; assay: Cytolytic activity of anti-BCMA CAR T cells co-cultured with RPMI-8226 target cells with or without lenalidomide; type: cell-based, human
# Experimental: […]. […] Cells from each condition were plated in triplicate.
# [7] = test system: anti-BCMA CAR+ T cells; assay: Serial restimulation of anti-BCMA CAR+ T cells with irradiated MM1.S cells: expansion, cytokines, CD25; type: cell-based, human
# Experimental: Anti-BCMA CAR+ T cells generated as described above were plated in triplicate at 1×10^5 cells/well on 96-well plates.
# Every 3-4 days (start of each new round), CAR T cells were counted. […] 8 rounds of stimulation were carried out during a 31 day culture period. For some rounds, at re-plating, cells were assessed for phenotypic markers via flow cytometry.
# Culture conditions were reset every 3-4 days. Replating was maintained for 28 days or until the cell count was <50,000 cells. Experiments were performed in triplicate in 3 donors.
# [8] = test system: anti-BCMA CAR+ T cells; assay: T cell markers and proliferation of anti-BCMA CAR+ T cells stimulated with BCMA-conjugated beads; type: cell-based, human
# Experimental: B cell maturation antigen (BCMA) was conjugated to beads by covalently coupling a BCMA-Fc fusion polypeptide, containing soluble human BCMA fused at its C-terminus to an Fc region of IgG, to the surface of commercially available tosyl-activated magnetic beads (ThermoFisher, Waltham Mass.). The beads are superparamagnetic, non-porous, monodisperse, tosylactivated beads that covalently bind primary amino and sulfhydryl groups. Conjugation was performed using beads having a diameter of approximately 2.8 μm (designated M-280) or 4.5 μm (designated M-450).
# Various concentrations of the BCMA-Fc fusion protein ranging from 5 μg to 200 μg were added to approximately 1 mL of tocylactivated beads (e.g. containing about 4×10^9 tocylactivated beads having a diameter of 2.8 μm or about 4×10^8 tocylactivated beads having a diameter of 4.5 μm). Covalent coupling was performed by overnight incubation at 37° C. in phosphate buffered solution (PBS) containing 0.1% human serum albumin (HSA). Beads were washed and resuspended in 1 mL PBS with 0.1% HSA. After conjugation, the bead concentration was determined using a Cellometer. In the examples below, the BCMA-conjugated beads used in various studies are referred to with reference either to the amount of BCMA-Fc antigen added per mL or the antigen concentration (μg/mL) during the conjugation, e.g. 5 μg or 5 μg/mL; 50 μg or 50 μg/mL; 200 μg or 200 μg/mL and so on.
# Approximately 1.5×10^6 CAR+ T cells were added to wells of a 12-well plate and were incubated with beads from a 200 μg/ml BCMA-conjugated bead composition at a ratio of CAR+ T cell to BCMA-conjugated bead of 1:0.3, 1:1 or 1:3 (approximately 0.5×10^6, 1.5. 10^6, and 4.5×10^6 beads per well, respectively). As controls, 5 μg/mL anti-CD3 antibody was coated to wells (sub-optimal concentration for stimulation) or cells were seeded in the absence of any agent (no stimulation control). […]
# In a further experiment, anti-BCMA CAR-T cell compositions produced substantially as described in Example 1 were plated in 96-well plates at a density of 5×10^5 cells per well. […]
# [9] = 0.1 μM lenalidomide, repeated stimulation
smiles,measurement,setting,value
"Nc1cccc2c1CN(C1CCC(=O)NC1=O)C2=O (stereo not shown) [lenalidomide, 3-(4-amino-1-oxo-1,3-dihydro-2H-isoindol-2-yl)piperidine-2,6-dione]",survival effects,"[1]; added to anti-BCMA CAR+ T cells, high and low doses, day −1 or delayed dosing",improved survival effects
same,# animals surviving day 56 post-CART,"[1]; lenalidomide 10 mg/kg i.p. daily from day −1 (A) or day 14 (B), cell dose hi 1.00E+06, low 5.00E+05",0/8
same,Median Survival (assessed at day 6),"[1]; lenalidomide 10 mg/kg i.p. daily from day −1 (A) or day 14 (B), cell dose hi 1.00E+06, low 5.00E+05, listed as lenalidomide (A)",28
same,Median Survival (assessed at day 6),"[1]; lenalidomide 10 mg/kg i.p. daily from day −1 (A) or day 14 (B), cell dose hi 1.00E+06, low 5.00E+05, listed as lenalidomide (B)",25
same,tumor growth or tumor burden,[1]; lenalidomide alone,not observed to reduce tumor growth or tumor burden
same,tumor growth and tumor burden,"[1]; lenalidomide from day 14 added to CAR-T cells, both doses",trend towards slower tumor growth and reduced tumor burden
same,tumor growth and tumor burden (bioluminescence),"[1]; lenalidomide from day −1 added to CAR+ T cells, both doses",slower tumor growth and reduced tumor burden
same,CAR+ T cell counts,[2]; 100 nM lenalidomide,increased CAR+ T cell counts for two out of three donors
same,cell doublings,"[2]; 2.5:1 E:T ratio, later rounds",lower cell doublings were only observed in two of the donors
same,cell doublings,"[2]; 10:1 E:T ratio, after 3-4 rounds, all donors",decreased cell doublings
same,anti-CD19 CAR+ T cell cytolytic activity,[3],decrease in anti-CD19 CAR+ T cell cytolytic activity
same,cytolytic activity,[4],exhibited greater cytolytic activity
same,IC50,[5],37.4 µM
same,target cell killing by anti-BCMA CAR+ T cells,"[6]; 1 μM or 10 μM lenalidomide, E:T 0.3:1, day 6, vs absence of lenalidomide",greater degree of target cell killing
same,time at which the effect of lenalidomide on cytolytic activity emerges,[6]; in culture,> 50 h
same,treatment effect of lenalidomide on CAR T cytolytic activity,"[6]; three healthy donors and one IMiD-refractory patient, 0.01-10 μM",appeared to be donor-dependent
same,projected cell counts,"[7]; 0.1 μM lenalidomide, 3 donors, over 28 days",increased projected cell counts
same,CAR T CD25 expression (MFI),[7]; [9],significant increase in CAR T CD25 expression
same,"IL-2, IFN-γ, and TNF-α production in the media",[7]; [9],significant increase
same,CAR-T expansion,"[7]; 0.1 μM lenalidomide, six donors",an increase or no change in CAR-T expansion
same,expansion of anti-BCMA CAR T cells,"[7]; 0.01-10 μM lenalidomide, by day 14, vs no lenalidomide",increased expansion of anti-BCMA CAR T cells
same,expansion of cells expressing two different human anti-BCMA CARs,[7]; beginning between day 21 and day 28,increase expansion in both cell populations
same,expression level of Ikaros,"[8]; 0.5 μM or 5 μM lenalidomide, 18 hours, all conditions",decreased
same,proliferative capacity of T cells (CTV),"[8]; 5 μM lenalidomide, 200 μg BCMA beads, 1:1, three days",increased the proliferative capacity of T cells
same,surface expression of CD25 in CD4+ and CD8+ T cells,"[8]; 5 μM lenalidomide, BCMA-conjugated beads or anti-CD3",further increased the extent of surface expression of CD25
